pEC50: −log10 of the molar value. Read-outs that look alike come from different tables or passages of the source.
Biological target: T1, FPR2 (Homo sapiens, UniProt P25090)
T1 construct: expressed in transfected cells; host or cells: CHO-Ga16 cells stably expressing FPR2
T1 sequence (P25090 1-351): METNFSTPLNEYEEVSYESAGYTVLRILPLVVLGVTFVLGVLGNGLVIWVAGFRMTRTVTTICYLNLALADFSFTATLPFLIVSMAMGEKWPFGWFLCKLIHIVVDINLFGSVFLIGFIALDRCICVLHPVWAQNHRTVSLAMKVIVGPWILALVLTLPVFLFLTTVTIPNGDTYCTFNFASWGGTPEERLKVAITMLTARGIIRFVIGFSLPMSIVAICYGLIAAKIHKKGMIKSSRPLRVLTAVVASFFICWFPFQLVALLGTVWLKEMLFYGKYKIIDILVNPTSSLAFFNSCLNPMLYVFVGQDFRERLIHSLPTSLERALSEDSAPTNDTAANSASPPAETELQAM
Test: compound-induced calcium activity on FLIPR Tetra in CHO-Ga16 cells stably expressing FPR2
Format: cell-based
Settings: for Emax: efficacy value given as a fraction, read-out: FPR2 Ga16-CHO (0.% eff) efficacy
Description: CHO-Ga16 cells stably expressing FPR2 were cultured in (F12, 10% FBS, 1% PSA, 400 μg/ml geneticin and 50 μg/ml hygromycin) and HEK-Gqi5 cells stable expressing FPR2 were cultured in (DMEM high glucose, 10% FBS, 1% PSA, 400 μg/ml geneticin and 50 μg/ml hygromycin). In general, the day before the experiment, 18,000 cells/well were placed in a 384-well clear bottom poly-d-lysine coated plate. The following day the screening compound-induced calcium activity was assayed on the FLIPR^Tetra. The drug plates were prepared in 384-well microplates using the EP3 and the MuItiPROBE robotic liquid handling systems. Compounds were tested at concentrations ranging from 0.61 to 10,000 nM. Results are expressed as EC50 (nM) and efficacy values.

[1] = CHO-Ga16 cells stably expressing FPR2, calcium activity, FLIPR Tetra, concentrations 0.61 to 10,000 nM
[2] = CHO-Ga16 cells stably expressing FPR2

SMILES	pEC50 [1]	Emax [2]	pEC50
CCOP(=O)(CNC(=O)[C@H](CC(C)C)NC(=O)Nc1ccc(Br)cc1)OCC [Compound 1, Diethyl({[(2S)-2-({[(4-bromophenyl)amino]carbonyl}amino)-4-methylpentanoyl]amino}methyl)phosphonate]	9.23	100%	–
CCC[C@H](NC(=O)Nc1ccc(Br)cc1)C(=O)NCP(=O)(OC(C)C)OC(C)C [Compound 9, Diisopropyl ({[(2S)-2-({[(4-bromophenyl)amino]carbonyl}amino)pentanoyl]amino}methyl)phosphonate]	9.10	94%	–
CCOP(=O)(CNC(=O)[C@H](CC(C)C)NC(=O)Nc1ccc(C(F)(F)F)cc1)OCC [Compound 11, Diethyl [({(2S)-4-methyl-2-[({[4-(trifluoromethyl)phenyl]amino}carbonyl)amino]pentanoyl}amino)methyl]phosphonate]	8.10	100%	–
CCOP(=O)(CNC(=O)[C@H](CC(C)C)NC(=O)Nc1ccc(SC)cc1)OCC [Compound 14, Diethyl [({(2S)-4-methyl-2-[({[4-(methylthio)phenyl]amino}carbonyl)amino]pentanoyl}amino)methyl]phosphonate]	8.68	90%	–
CCOP(=O)(O)CNC(=O)[C@@H](NC(=O)Nc1ccc(Br)cc1)[C@@H](C)CC [Compound 16, Ethyl hydrogen ({[(2S,3S)-2-({[(4-bromophenyl)amino]carbonyl}amino)-3-methylpentanoyl]amino}methyl)phosphonate]	8.49	88%	–
CCC[C@H](NC(=O)Nc1ccc(Br)cc1)C(=O)NCP(=O)(O)O [Compound 22, ({[(2S)-2-({[(4-bromophenyl)amino]carbonyl}amino)pentanoyl]amino}methyl)phosphonic acid]	7.49	94%	–
CCOP(=O)(CCNC(=O)[C@H](CC(C)C)NC(=O)Nc1ccc(Br)cc1)OCC [Compound 8, Diethyl (2-{[(2S)-2-({[(4-bromophenyl)amino]carbonyl}amino)-4-methylpentanoyl]amino}ethyl)phosphonate]	8.74	100%	–
CCOP(=O)(CNC(=O)[C@@H](NC(=O)Nc1ccc(Br)cc1)[C@@H](C)CC)OCC [Compound 5, Diethyl ({[(2S,3S)-2-({[(4-bromophenyl)amino]carbonyl}amino)-3-methylpentanoyl]amino}methyl)phosphonate]	8.62	100%	–
CCOP(=O)(CNC(=O)[C@H](Cc1ccccc1)NC(=O)Nc1ccc(Br)cc1)OCC [Compound 7, Diethyl ({[(2S)-2-({[(4-bromophenyl)amino]carbonyl}amino)-3-phenylpropanoyl]amino}methyl)phosphonate]	7.70	98%	–
CCC[C@H](NC(=O)Nc1ccc(Br)cc1)C(=O)NCP(=O)(O)OCC [Compound 17, Ethyl hydrogen ({[(2S)-2-({[(4-bromophenyl)amino]carbonyl}amino)pentanoyl]amino}methyl)phosphonate]	–	94%	9.00
CCOP(=O)(O)CNC(=O)[C@H](CC(C)C)NC(=O)Nc1ccc(Br)cc1 [Compound 15, Ethyl hydrogen({[(2S)-2-({[(4-bromophenyl)amino]carbonyl}amino)-4-methylpentanoyl]amino}methyl)phosphonate]	–	88%	9.02
CC(C)C[C@H](NC(=O)Nc1ccc(Br)cc1)C(=O)NCP(=O)(OC(C)C)OC(C)C [Compound 10, Diisopropyl ({[2-({[(4-bromophenyl)amino]carbonyl}amino)-4-methylpentanoyl]amino}methyl)phosphonate]	8.40	100%	–
CCOP(=O)(O)CNC(=O)[C@H](CC(C)C)NC(=O)Nc1ccc(C(F)(F)F)cc1 [Compound 20, Ethyl hydrogen [({(2S)-4-methyl-2-[({[4-(trifluoromethyl)phenyl]amino}carbonyl)amino]pentanoyl}amino)methyl]phosphonate]	8.70	95%	–
CC(C)C[C@H](NC(=O)Nc1ccc(C(F)(F)F)cc1)C(=O)NCP(=O)(O)O [Compound 23, [({(2S)-4-methyl-2-[({[4-(trifluoromethyl)phenyl]amino}carbonyl)amino]pentanoyl}amino)methyl]phosphonic acid]	7.19	102%	–
CCOP(=O)(O)CNC(=O)[C@H](CC(C)C)NC(=O)Nc1ccc(S(C)(=O)=O)cc1 [Compound 21, ethyl hydrogen [({(2S)-4-methyl-2-[({[4-(methylsulfonyl)phenyl]amino}carbonyl)amino]pentanoyl}amino)methyl]phosphonate]	6.88	99%	–
CC(C)C[C@H](NC(=O)Nc1ccc(Br)cc1)C(=O)NCc1cc(O)no1 [Compound 4, (2S)-2-({[(4-Bromophenyl)amino]carbonyl}amino)-N-[(3-hydroxyisoxazol-5-yl)methyl]-4-methylpentanamide]	7.92	100%	–
CCOP(=O)(CNC(=O)[C@H](CC(C)C)NC(=O)Nc1ccc(S(C)(=O)=O)cc1)OCC [Compound 24, Diethyl[({(2S)-4-methyl-2-[({[4-(methylsulfonyl)phenyl]amino}carbonyl)amino]pentanoyl}amino)methyl]phosphonate]	7.35	112%	–
CC(C)C[C@H](NC(=O)Nc1ccc(Br)cc1)C(=O)NCS(=O)(=O)O [{[(2S)-2-{[(4-Bromophenyl)carbamoyl]amino}-4-methylpentanoyl]amino}methanesulfonic acid]	8.64	91%	–
CC(C)C[C@H](NC(=O)Nc1ccc(C(F)(F)F)cc1)C(=O)NCc1nnn[nH]1 [Compound 12, (2S)-4-methyl-N-(1H-tetrazol-5-ylmethyl)-2-[({[4-(trifluoromethyl)phenyl]amino}carbonyl)amino]pentanamide]	8.40	91%	–
CCCC(NC(=O)Nc1ccc(Br)cc1)C(=O)NCP(=O)(O)OC(C)C (centres unmarked) [Compound 19, Iso-propyl hydrogen ({[2-({[(4-bromophenyl)amino]carbonyl}amino)pentanoyl]amino}methyl)phosphonate]	8.73	89%	–
CC(C)C[C@H](NC(=O)Nc1ccc(C(F)(F)F)cc1)C(=O)NCS(=O)(=O)O [Compound 13, ({(2S)-4-methyl-2-[({[4-(trifluoromethyl)phenyl]amino}carbonyl)amino]pentanoyl}amino)methanesulfonic acid]	8.80	100%	–
CCC[C@H](NC(=O)Nc1ccc(Br)cc1)C(=O)NCP(=O)(OCC)OCC [Compound 6, Diethyl ({[(2S)-2-({[(4-bromophenyl)amino]carbonyl}amino)pentanoyl]amino}methyl)phosphonate]	9.54	94%	–
CC(C)C[C@H](NC(=O)Nc1ccc(Br)cc1)C(=O)NCc1nnn[nH]1 [Compound 2, (2S)-2-({[(4-Bromophenyl)amino]carbonyl}amino)-4-methyl-N-(1H-tetrazol-5-ylmethyl)pentanamide]	8.64	81%	–
CC(C)C[C@H](NC(=O)Nc1ccc(Br)cc1)C(=O)NCCc1nnn[nH]1 [Compound 3, (2S)-2-({[(4-Bromophenyl)amino]carbonyl}amino)-4-methyl-N-[2-(1H-tetrazol-5-yl)ethyl]pentanamide]	7.32	100%	–
CCOP(=O)(O)CNC(=O)[C@H](Cc1ccccc1)NC(=O)Nc1ccc(Br)cc1 [Compound 18, Ethyl hydrogen ({[(2S)-2-({[(4-bromophenyl)amino]carbonyl}amino)-3-phenylpropanoyl]amino}methyl)phosphonate]	–	110%	7.80

Reference: patent publication US9670150B2, “(2-ureidoacetamido)alkyl derivatives as formyl peptide receptor 2 modulators” (Allergan, Inc., priority 2012, dated 2017)
